Results reported in patent US10517871B2, “Survivin-targeting anti-tumor agents and uses thereof” (Indiana University Research and Technology Corporation, priority 2015, dated 2019).
“Also recorded” adds a separate entry of the source. Residues, ends and D or L forms follow the SMILES beside them. *: point of attachment. Cbz = O=C(OCc1ccccc1)*

Legend:
[1] = biological target: T1, 14-3-3σ (Homo sapiens, UniProt P31947); assay: Non-denaturing PAGE of 14-3-3σ dimerization; assay type: biochemical; conditions: 100 μM
T1 sequence (P31947 1-248): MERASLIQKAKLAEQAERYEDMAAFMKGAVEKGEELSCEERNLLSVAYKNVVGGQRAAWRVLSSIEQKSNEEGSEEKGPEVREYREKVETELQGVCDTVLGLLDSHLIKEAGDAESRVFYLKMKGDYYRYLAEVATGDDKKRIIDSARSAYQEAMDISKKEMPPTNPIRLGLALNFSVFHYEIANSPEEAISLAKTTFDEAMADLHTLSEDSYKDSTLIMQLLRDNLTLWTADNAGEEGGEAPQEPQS
Protocol: After centrifugation at 11,000×g for 10 minutes, the supernatants were separated by electrophoresis on 15% Tris/glycine polyacrylamide gel followed by transfer to PVDF membrane for western blot analysis as previously described^48.

[2] = system: survivin mRNA in DU145 cells; assay: Real-time RT-PCR of survivin mRNA; assay type: cell-based, human; conditions: DU145, 48 hrs
[3] = system: human cancers; conditions: several phase II trials; cited from earlier work
[4] = system: A549 cells; assay: Colony formation assay, A549; assay type: cell-based, human; conditions: control 45%
Protocol: (§1) These assays were performed as previously described^49,50. Briefly, MTT assay were performed by seeding 2500 cells in 96-well plate and cultured 24 hours before addition of survivin inhibitors at different concentrations and continuous culture for 3 days. The cells were then subjected to MTT assay. For colony formation assay, 100 cells/well were seeded in 6-well plates and cultured for 24 hours before addition of survivin inhibitors or DMSO vehicle. The cells were continuously cultured in the presence of survivin inhibitors or DMSO for 10-14 days followed by staining with crystal violet and counting manually.

[5] = biological target: T2, survivin in DU145 and PC-3 cells (Homo sapiens, UniProt O15392); assay: Survivin half-life determination (cycloheximide chase); assay type: cell-based; conditions: PC-3, cycloheximide pre-treated, 5 μM LQZ-7F
T2 construct: endogenous in cells; host or cells: DU145 and PC-3 cells
T2 sequence (O15392 whole entry): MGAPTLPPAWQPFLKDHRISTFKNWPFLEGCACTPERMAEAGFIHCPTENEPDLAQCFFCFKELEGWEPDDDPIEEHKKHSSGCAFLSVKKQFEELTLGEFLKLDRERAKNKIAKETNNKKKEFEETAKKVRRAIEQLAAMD
Protocol: PC-3 cells were pre-treated with cycloheximide (CHX) to inhibit protein synthesis followed by chasing for different times in the presence of LQZ-7F or DMSO control and Western blot analysis of remaining survivin.
The effect of survivin inhibitor on the half-life of survivin was determined as previously described^51. […] The cells were then harvested for Western blot analysis of survivin.

[6] = biological target: T3, survivin in PC3 cells (Homo sapiens, UniProt O15392); assay: Western blot of endogenous survivin, PC3; assay type: cell-based; conditions: vs vehicle
T3 construct: endogenous in cells; host or cells: PC-3 cells
T3 sequence (O15392 whole entry): as above

[7] = biological target: purified survivin (Homo sapiens, UniProt O15392); assay: Pull-down assay with sepharose-immobilized compound; assay type: binding; conditions: CNBr-activated sepharose, vs control beads
Sequence of purified survivin (O15392 whole entry): as above
From the text: LQZ-7F was immobilized onto CNBr-activated Sepharose and used to pull down recombinant survivin, followed by separation on SDS-PAGE and silver staining.
To investigate if LQZ-7F indeed binds to survivin, we took advantage of the primary amine group and immobilized LQZ-7F onto CNBr-activated sepharose for a pull-down assay using purified survivin.

[8] = system: PC-3 xenograft tumors; assay: PC-3 xenograft mouse model efficacy; assay type: in vivo, NOD/SCID mice
Protocol: We next determined if LQZ-7F is active in suppressing tumor growth in vivo using xenograft animal model. For this purpose, NOD/SCID mice were first implanted subcutaneously with PC-3 cells to establish xenograft tumors. PC-3 cell was chosen because it has highest IC50 (FIG. 6). When the xenograft tumor reached the size of ˜100 mm^3, the mice were randomized into two groups and treated with 25 mg/kg LQZ-7F or vehicle control via IP injection once every three days for total of 8 treatments. The growth of the xenograft tumors were measured using a caliper and body weight was monitored every three days for a total of 30 days. […] In fact, the body weight of the control group dropped slightly possibly due to disease burden of xenograft tumors. This symptom appears to be alleviated by LQZ-7F treatment, consistent with smaller tumor size in the treatment group.
For efficacy study, 3×10^6 PC-3 cells were injected subcutaneously in the flanks of 10 NOD/SCID mice. When the tumor volume reached about 100 mm^3, the mice were randomized into two different groups (5/group) with one group treated by vehicle control and the other by LQZ-7F at 25 mg/kg via IP injection once every three days for total of 8 treatments. Tumor volume and body weight were measured […]. On the 30th day after the initial treatment, mice were euthanized and the tumor tissues were harvested, weighed, and subjected to hematoxylin and eosin (H&E) staining as well as Western blot and immunohistochemistry analysis of survivin.

[9] = system: PC-3 cells; assay: Microtubule structure by α-tubulin immunostaining; assay type: cell-based, human; conditions: PC-3, 2 μM, 24 hours
Protocol: PC3 cells were treated without or with 2 μM LQZ-7F for 24 hours followed by immunostaining of α-tubulin and counter-stained with DAPI. The images were captured using confocal microscopy.

[10] = system: PC-3 cells; assay: MTT cell survival assay, PC-3; assay type: cell-based, human; conditions: PC3, MTT, compared with LQZ-7
Protocol: (§2) Human prostate cancer cell lines DU145 (top) and PC3 cells (bottom) were cultured in the presence of vehicle DMSO or 20 μM compounds off in-silico screening for 3 days followed by MTT assay. Cells survived in the presence of various compounds were normalized to that treated by DMSO vehicle. Arrows indicate compounds that inhibited >50% in cell survival. (*p<0.05; **p<0.01).
as §1

[11] = system: PC3 cells; assay: Colony formation assay, PC3; assay type: cell-based, human; design: unit of the concentration uncertain; conditions: control approximately 62%
Protocol: as §1

[12] = system: multiple human cancer cell lines (acute myeloid leukemia, breast, colon, lung, pancreas, prostate, ovary); assay: MTT assay, multiple human cancer cell lines; assay type: cell-based; conditions: range over all cell lines tested, read-out: IC50 for survival of cancer cell lines
Protocol: Toward this goal, we tested the effect of LQZ-7F on survival of multiple human cancer cell lines representing acute myeloid leukemia and cancers of breast, colon, lung, pancreas, prostate, and ovary using MTT assay.
as §1

[13] = biological target: T4, survivin in DU145 cells (Homo sapiens, UniProt O15392); assay: Western blot of endogenous survivin, DU145; assay type: cell-based; conditions: vs vehicle
T4 construct: endogenous in cells; host or cells: DU145
T4 sequence (O15392 whole entry): as above

[14] = biological target: T5, ectopic Flag-tagged survivin in HEK293 cells (Homo sapiens, UniProt O15392); assay: Western blot of ectopic tagged survivin in HEK293; assay type: cell-based
T5 construct: expressed in transfected cells; host or cells: HEK293 cells, CMV promoter
T5 sequence (O15392 whole entry): as above

[15] = system: DU145 cells; assay: MTT cell survival assay, DU145; assay type: cell-based, human; conditions: compared with LQZ-7
Protocol: as §2, §1

[16] = biological target: T3, survivin in PC3 cells; assay: Proteasome inhibitor reversal of compound-induced survivin degradation; assay type: cell-based; conditions: for effect of proteasome inhibitor on LQZ-7F-induced survivin degradation: co-treatment with LQZ-7F
[17] = biological target: survivin and its partner Ran protein (Homo sapiens, UniProt O15392); conditions: cited from earlier work
Sequence of survivin and its partner Ran protein (O15392 whole entry): as above

[18] = biological target: survivin (Homo sapiens, UniProt O15392); conditions: cited from earlier work
Sequence of survivin (O15392 whole entry): as above

[19] = system: cancer cells; conditions: read-out: IC50 for proliferation of cancer cells; cited from earlier work

## Cc1cccc(Nc2nc3nonc3nc2N/N=C/c2ccc(-c3cccc(C(=O)O)c3)o2)c1C [LQZ-7]
[1]
  effect on 14-3-3σ dimerization: no effect
[2]
  survivin mRNA level: no effect

## COCCn1c2c([n+](Cc3cnccn3)c1C)C(=O)c1ccccc1C2=O [YM155]
[3]
  clinical efficacy: limited or modest at best efficacy

## Nc1nonc1C(=O)N/N=C1\c2ccccc2-c2nc3nonc3nc21 [LQZ-7F]
[4]; A549, 0.2
  colony formation efficiency: approximately 2.5%
[4]; A549, 0.5
  colony formation efficiency: ~0%
[5]
  degradation of endogenous survivin: increased degradation
[6]
  endogenous survivin protein level: effectively suppressed
[7]
  pull-down of survivin by immobilized compound: successfully pulled down
[8]; 25 mg/kg IP once every three days, 8 treatments
  body weight of mice: remained constant
[8]; 25 mg/kg IP once every three days, 8 treatments, vs vehicle
  growth of xenograft tumors: significantly inhibited
[8]; 25 mg/kg IP, day 30, vs control group
  average weight of final tumors: significantly less
[8]; 25 mg/kg IP, vs control-treated tumors
  apoptotic cells in tumors: more apoptotic cells
[8]; Western blot and IHC, vs control-treated group
  survivin in xenograft tumors: dramatically reduced
[9]
  microtubule structure: severely disrupted
  mitotic arrest: many cells are arrested in mitotic phase
[10]
  IC50 in words: lower IC50 than the parent compound
[11]; PC3, 0.2 (unit uncertain)
  colony formation efficiency: approximately 52%
[11]; PC3, 0.5 (unit uncertain)
  colony formation efficiency: ~12%
[11]; PC3, 1 (unit uncertain)
  colony formation efficiency: ~8%
[12]
  IC50: 0.4 to 4.4 µM
[13]
  endogenous survivin protein level: effectively suppressed
[14]
  level of ectopic tagged survivin: reduced survivin protein level; also recorded: completely eliminated survivin
[15]
  IC50 in words: lower IC50 than the parent compound

## Cc1cccc(Nc2nc3nonc3nc2N/N=C/c2cc3c(cc2[N+](=O)[O-])OCO3)c1C [LQZ-7D]
[10]
  IC50 in words: low IC50
[14]
  level of ectopic tagged survivin: no effect
[15]
  IC50 in words: low IC50

## Cc1cccc(Nc2nc3nonc3nc2N/N=C/c2ccc(-c3ccc(Cl)c([N+](=O)[O-])c3)o2)c1C [LQZ-7A]
[10]
  IC50 in words: low IC50
[14]
  level of ectopic tagged survivin: no effect
[15]
  IC50 in words: low IC50

## CC(C)C[C@H](NC(=O)[C@H](Cc1ccccc1)NC(=O)c1cnccn1)B(O)O [bortezomib]
[16]
  effect of proteasome inhibitor on LQZ-7F-induced survivin degradation: able to rescue

## CC(C)C[C@@H](C=O)NC(=O)[C@H](CC(C)C)NC(=O)[C@H](CC(C)C)NC(=O)OCc1ccccc1 [MG132] (Cbz-Leu-Leu-Leu-aldehyde)
[16]; co-treatment with LQZ-7, PC-3
  effect of proteasome inhibitor on LQZ-7-induced survivin loss: reversed
[16]
  effect of proteasome inhibitor on LQZ-7F-induced survivin degradation: able to rescue

## N#Cc1c(-c2cc(OCc3ccccc3)cc(OCc3ccccc3)c2)cc(-c2cc(Cl)ccc2O)[nH]c1=O [LLP3]
[17]
  interaction between survivin and Ran protein: inhibited
[18]
  effect on survivin dimerization or its expression: no effect
[19]
  IC50: 14 to 38 µM
